In brackets after ≈: the same amount, converted by molar mass. Where a name gives a salt, the structure may show the parent alone. Read-outs that look alike come from different tables or passages of the source.
Columns and labels:
Plasmodium falciparum K1 = assay: Chloroquine resistant-Plasmodium falciparum growth inhibition screening test; assay type: cell-based; details: for Selective toxicity: EC50 against rat L6 cells / EC50 against P. falciparum K1; for EC50: Plasmodium falciparum, Table 2, unit inferred, chloroquine-resistant K1 strain, read-out: P. falciparum K1
Method: In the present experiment, protozoa of plasmodium falsiparum K1 strain was used. RPMI-1640 medium sterilized with a filter to which human serum was added to be 5%, was used in the experiment. Malarial parasites were cultured under 3% O2 concentration, 4% CO2 concentration, 93% N2 concentration, and at a temperature of 37° C.
The compounds of the present invention to be used in the present test and the positive control drug (chloroquine) were dissolved in DMSO to make a test solution of a predetermined concentration. Cultured malaria parasite infected-erythrocytes were collected by centrifugation, and diluted with non-infected erythrocyte so that the early infection rate was 0.15%. Hematocrit level at that time was 2.5%.
200 μL of malaria infected solution was added to wells of a 96-well culture plate, and adjusted by adding a test solution containing drug of a predetermined concentration or a drug-free DMSO. Test solutions were taken by duplicates.
[…] […] Radiation intensity was measured with a beta plate liquid scintillation counter (Wallac), and malarial parasite infection rates of the test solution added group and the control group were calculated.
Growth inhibition rate (%)={1−(b−a)/(c−a)}×100 • a: early infection rate • b: infection rate when test solution was added • c: infection rate of the control 3. Growth Inhibition Test of Rat L6 Cells
Antimalarial activity of a sample was estimated from EC50 values of the sample against chloroquine resistant-Plasmodium falciparum and rat L6 cells. […] It means that the larger the value of the selection toxity, the less the risk of the side effect is. Chemotherapy index=(EC50 value of a sample against rat L6 cells)/(EC50 value of a sample against chloroquine resistant-Plasmodium falsiparum)

[1] = tested on: Plasmodium berghei NK65 strain; assay: Cure test by oral administration to mice infected with malaria; assay type: in vivo; details: for inhibition in vivo at 100 mg/kg: Plasmodium berghei; for Days of survival: mean days to death minus that of control mice; for Effectiveness in the in vivo malaria test, in words: oral administration to mice infected with rodent malaria
Method: In this experiment, rodent malaria parasites (the Plasmodium berghei NK65 strain) were used.
The infected blood to be used was subcultured in ICR female SPF mice infected by intraperitoneal or tail vein administration at 4 to 6 weeks old (20 to 26 g). […] Thereafter, based on the number of red cells (cells/ml) and the rate of infection by the protozoans, the blood was diluted with phys'iological saline such that a density of […] malaria parasites/1 ml dose was attained. This was used for infection of uninfected mice (ICR female mice, 5 weeks old) in an amount of 0.2 ml/20 g body weight, through the tail vein (Day-0). The compound used in the test was dissolved in 10% DMSO solution (a mixture of 1 ml of DMSO and 9 ml of 5% glucose solution).
Each group contained 4 mice, and the compound was orally administered to the mice 24 hours after their infection with malaria (Day-1), in an amount calculated such that 100 mg of the compound was administered per 1 kg of the body weight of a mouse. On the other hand, in terms of cases in which the amount was calculated such that 30 mg of the compound was administered per 1 kg of the body weight of a mouse, the oral administration was carried out a total of three times, that is, 24 hours (Day-1), 48 hours (Day-2) and 72 hours (Day-3) after the infection of malaria.
Blood was collected from the tails of each mouse 96 hours (Day-4) and 144 hours (Day-6) after the infection with malaria, and thin blood films were prepared. Under the microscope, the numbers of infection of malaria parasites in the group to which the compound was administered and the control group (to which the compound was not administered) were measured, and the rates of infection with malaria parasites (Parasitemia) were calculated.
From the rate of infection with malaria parasites calculated as above, the cure rate (Suppression) in the case of administration of the drug was calculated according to the following equation. Cure rate: Suppression (%)=(B−A)/B×100
A: Rate of infection with the protozoans in a mouse to which the present test compound was administered
B: Rate of infection with the parasites in a control mouse (to which the compound was not administered) Days of survival: MSD (day)=C−D
C: the average number of days from the date of infection with malaria to the date of death in the mice to which the present test compound was administered
D: The average number of days from the date of infection with malaria to the date of death in the 4 individuals of control mice (to which the compound was not administered)
Further, by observation of changes in the body weight, hair glossiness and the like of each mouse, side effects such as acute toxicity due to administration of the compound were evaluated.

Rat L6 cells = assay: Growth inhibition test of rat L6 cells; assay type: cell-based; details: Table 2, unit inferred, 72 hours, read-out: Cytoxicity L6
Method: Rat derived-L6 cells (rat skeletal myoblast cell) were used. A medium, RPMI1640 medium was supplemented so that L-glutamin (200 mM) is 1%, and fetal bovine serum 10%, and the medium was cultured under CO2 concentration 5%, at 37° C.
The compounds of the present invention and the control drugs to be used in the test were dissolved in DMSO, to make a test solution of a predetermined concentration.
Pre-culture was conducted and medium containing cells which have entered the logarithmic growth phase was taken to wells of a 96-well culture plate. Then, a test solution containing drug of a predetermined concentration or a drug-free DMSO was added. Test solutions were taken by duplicates.
Culture plate was cultured for 72 hours in an incubator, to test the growth inhibition activity. Test was conducted as follows. 10 μL of Alamar Blue aqueous solution was added to each well, and the resultant was further cultured for 2 hours. Next, the culture plate was placed on a fluorescent micro-plate reader (Spectramax Gemeni XS; US Molecular Device), radiated at an excited wavelength of 536 nm. Fluorescent intensity was measured at 588 nm, and residual rate of L6 cells of the test solution added group, and that of the control was calculated.
Growth inhibition rate (%)={(C−A)/(B−A)}×100 • A: Primary cell count • B: cell count of control, 3 days after • C: cell count of wells added with a sample, 3 days after 4. Determination of Drug Efficacy Against Chloroquine Resistant-Plasmodium

[2] = 96 h, oral, 100 mg/kg, 1 dose, infected ICR mice, suppression vs control, read-out: Cure rate (%) Day-4
[3] = 144 h, oral, 100 mg/kg, 1 dose, infected ICR mice, suppression vs control, read-out: Cure rate (%) Day-6
[4] = po, 96 h, read-out: Cure rate (%) Day-4
[5] = po, 144 h, read-out: Cure rate (%) Day-6

Structure (SMILES) | melting point | inhibition in vivo at 100 mg/kg [1, 2] | inhibition in vivo at 100 mg/kg [1, 3] | Days of survival ([1]; oral, 100 mg/kg, 1 dose) | Effectiveness in the in vivo malaria test, in words [1] | also measured
c1ccc(/N=c2/cc3oc4cc(N5CCOCC5)ccc4nc-3c3ccccc23)nc1 [Compound 1O, N-(9-Morphlino-5H-benzo[a]phenoxazin-5-ylidene)pyridin-2-amine] | – | 81% | 60% | 0.6 days | – | Selective toxicity (Plasmodium falciparum K1): 1386; EC50 (Plasmodium falciparum K1): 0.015 µg/mL (≈ 0.0367 µM); EC50 (Rat L6 cells): 20.8 µg/mL (≈ 50.9 µM)
CCOC(=O)C(Cc1ccc(O)cc1)N=c1cc2oc3cc(N(CC)CC)ccc3nc-2c2ccccc12 (stereo not shown) [Compound 1Q, Ethyl 2-[9-(Diethylamino)-5H-benzo[a]phenoxazin-5-ylideneamino]-3-(4-hydroxyphenyl)propanoate] | 175 to 181 °C | – | – | – | – | Selective toxicity (Plasmodium falciparum K1): 751; EC50 (Plasmodium falciparum K1): 0.045 µg/mL (≈ 0.0883 µM); EC50 (Rat L6 cells): 33.8 µg/mL (≈ 66.3 µM)
c1ccc2c(=Nc3ccncc3)cc3oc4cc(N5CCOCC5)ccc4nc-3c2c1 [Compound 1e, 9-Morpholino-5-(pyridin-4-ylimino)-5H-benzo[a]phenoxazine] | > 300 °C | – | – | – | – | –
CCN(CC)c1ccc2nc3c(cc(N)c4ccccc43)[o+]c2c1 [Nile blue A, reference compound] | – | 15% | 5% | 0.3 days | did not show effectiveness | –
CCN(CC)c1ccc2nc3c4ccccc4/c(=N\c4ccccc4)cc-3oc2c1 [Compound 1U, reference compound] | – | – | – | 0.8 days | effectiveness was hardly observed | inhibition in vivo at 100 mg/kg [1, 4]: 0%; inhibition in vivo at 100 mg/kg [1, 5]: 16.8%
CCNc1cc2[o+]c3cc(NCC)c4ccccc4c3nc2cc1C [Oxazin 170 perchlorate, reference compound] | – | 40% | 57% | 1.3 days | did not show effectiveness | –
c1ccc2c(=Nc3ccncc3)cc3oc4cc(N5CCCCC5)ccc4nc-3c2c1 [Compound 1f, 9-(Piperidin-1-yl)-5-(pyridin-4-ylimino)-5H-benzo[a]phenoxazine] | 266.8 to 268.2 °C | – | – | – | – | –
CCN(CC)c1ccc2nc3c4ccccc4/c(=N\c4ccc(C)cc4)cc-3oc2c1 [Compound 1V, reference compound] | – | – | – | 0.8 days | effectiveness was hardly observed | inhibition in vivo at 100 mg/kg [1, 4]: 0%; inhibition in vivo at 100 mg/kg [1, 5]: 11.4%
CCN(CC)c1ccc2nc3c4ccccc4c(=Nc4cccnc4)cc-3oc2c1 [Compound 1N, N,N-Diethyl-5-(pyridin-3-ylimino)-5H-benzo[a]phenoxazin-9-amine] | – | 41% | 0% | 0 days | – | Selective toxicity (Plasmodium falciparum K1): 5123; EC50 (Plasmodium falciparum K1): 0.009 µg/mL (≈ 0.0228 µM); EC50 (Rat L6 cells): 46.1 µg/mL (≈ 117 µM)
CCN(CC)c1ccc2nc3c4ccccc4c(=O)cc-3oc2c1 [Nile red, reference compound] | – | 16% | 3% | 0 days | did not show effectiveness | –
CCN(CCNS(C)(=O)=O)c1cc(C)c2nc3c4ccccc4c(=Nc4cccnc4)cc-3oc2c1 [Compound 1T, N-Ethyl-N-(2-methansulfonamidylethyl)-11-methyl-5-(pyridine-3-ylimino)-5H-benzo[a]phenoxazin-9-amine] | – | 96.5% | 79.4% | 13.3 days | excellent cure effects | Selective toxicity (Plasmodium falciparum K1): 2988; EC50 (Plasmodium falciparum K1): 0.008 µg/mL (≈ 0.0159 µM); EC50 (Rat L6 cells): 23.9 µg/mL (≈ 47.7 µM)
CCN(CC)c1ccc2nc3c4ccccc4c(=Nc4cc(C)nc5ccccc45)cc-3oc2c1 [Compound 1P, N,N-Diethyl-5-(2-methylquinoline-4-ylimino)-5H-benzo[a]phenoxazin-9-amine] | 229 to 230 °C | – | – | – | – | Selective toxicity (Plasmodium falciparum K1): 183; EC50 (Plasmodium falciparum K1): 0.036 µg/mL (≈ 0.0785 µM); EC50 (Rat L6 cells): 6.6 µg/mL (≈ 14.4 µM)

The next lines start with results.

melting point | Structure (SMILES) | inhibition in vivo at 100 mg/kg [1, 2] | inhibition in vivo at 100 mg/kg [1, 3] | Days of survival ([1]; oral, 100 mg/kg, 1 dose) | Effectiveness in the in vivo malaria test, in words [1] | also measured
167.2 to 168.4 °C | CCN(CC)c1cc(C)c2c(c1)OC1=CC(Nc3ccccn3)c3ccccc3C1=N2 (stereo not shown) (as salt: HCl) [Compound 1a, N,N-Diethyl-11-methyl-5-(pyridin-2-ylamino)-5H-benzo[a]phenoxazin-9-amine] | – | – | – | – | –
204 to 205 °C | CCN(CC)c1ccc2nc3c4ccc(Br)cc4c(=Nc4ccccn4)cc-3oc2c1 [Compound 1F, 3-Bromo-N,N-diethyl-5-(pyridin-2-ylimino)-5H-benzo[a]phenoxazin-9-amine] | – | – | – | – | –
161.6 to 163.1 °C | CCN(CC)c1cc(C)c2c(c1)OC1=CC(Nc3cccnc3)c3ccccc3C1=N2 (stereo not shown) (as salt: HCl) [Compound 1b, N,N-Diethyl-11methyl-5-(pyridin-3-ylamino)-5H-benzo[a]phenoxazin-9-amine] | – | – | – | – | –
215 to 216 °C | CCCN(CCC)c1ccc2nc3c4ccccc4c(=Nc4ccncc4)cc-3oc2c1 [Compound 1D, N,N-Dipropyl-5-(pyridin-4-ylimino)-5H-benzo[a]phenoxazin-9-amine] | – | – | – | – | –
> 300 °C | CCN(CC)c1cc(C)c2c(c1)OC1=CC(Nc3ccncc3)c3ccccc3C1=N2 (stereo not shown) (as salt: HCl) [Compound 1c, N,N-Diethyl-11-methyl-5-(pyridin-4-ylamino)-5H-benzo[a]phenoxazin-9-amine] | – | – | – | – | –
188 to 189 °C | CCCCN(CCCC)c1ccc2nc3c4ccccc4c(=Nc4ccncc4)cc-3oc2c1 [Compound 1E, N,N-Dibutyl-5-(pyridin-4-ylimino)-5H-benzo[a]phenoxazin-9-amine] | – | – | – | – | –
